In article PMC5700055, “Structural basis of cholesterol binding by a novel clade of dendritic cell modulators from ticks” (Scientific Reports, 2017):

Biological target: T1, Japanin (Rhipicephalus appendiculatus, UniProt M1MR49)
T1 construct: polyhistidine-tagged recombinant secretory lipocalin, Sf9 baculovirus; 18 kDa; N-glycosylated at Asn35 and Asn131; homodimer; disulphides Cys28-Cys150, Cys114-Cys138; modelled residues 1-154
T1 sequence (M1MR49 25-176): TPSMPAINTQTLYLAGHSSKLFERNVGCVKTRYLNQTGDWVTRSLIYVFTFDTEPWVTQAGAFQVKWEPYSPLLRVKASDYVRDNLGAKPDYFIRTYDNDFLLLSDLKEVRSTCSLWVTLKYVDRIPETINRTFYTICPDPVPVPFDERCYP
Experiment: X-ray crystallography ([…] and […] Å)
Format: binding
Conditions: co-purified ligand, no cholesterol added; one per monomer in closed lipocalin barrel pocket; crystals pH 6.9-7.2 (4boe) and pH 4.5 (4bqu), 21 °C

Question: `CC(C)CCC[C@@H](C)[C@H]1CC[C@H]2[C@@H]3CC=C4C[C@@H](O)CC[C@]4(C)[C@H]3CC[C@]12C` [CLR, cholesterol] was tested. Which “X-ray crystallography (2.2 and 2.4 Å)” value did it give?
Answer: each molecule in the crystals binds one molecule of cholesterol
